Experimental data reported in US20260317340A1, “COMPOUNDS, COMPOSITIONS, AND METHODS OF TREATING DISORDERS” (Chengdu Anticancer Bioscience, Ltd., priority 2023, published 2026).
Like-named read-outs stand apart in the source and are kept apart here.

Experiments:
[1] = test system: RPE-Neo or RPE-MYC or RPE-MYC expressing an EGFP-Histone 2B fusion protein; test: Phenotypic screening assay: arrest in mitosis, change in DNA content (polyploidy), cell death; assay type: cell-based; details: 20 nM to 20 μM, 24, 48 or 72 hours
Summary of the method: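 Compound exposure from 20 nM to 20 μM in RPE lines (Neo, MYC, or MYC with EGFP-histone H2B), seeded 18-24 h earlier; imaging at 24, 48 or 72 h read mitotic arrest or altered DNA content, with MTT for proliferation. Results reported as A–D range categories.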

RPE-Neo or RPE-MYC cells = test: MTT assay of cellular proliferation (proliferative arrest); assay type: cell-based; details: read-out: Min. Effective conc. for Proliferative arrest (>50%)
[2] = read-out: Min. Effective conc. for Along with Cell Death
[3] = ≥5%, read-out: Min. Effective conc. for Mitotic Arrest (≥5%)
[4] = ≥5%, read-out: Min. Effective conc. for Polyploidy (≥5%)

Structure (SMILES)	minimal effective concentration [1, 2]	minimal effective concentration [1, 3]	minimal effective concentration [1, 4]	minimal effective concentration (RPE-Neo or RPE-MYC cells)
COc1ccc(CN2C(=O)CC(c3ncc(C)o3)=Cc3ccc(-c4cnn(C5CNC5)c4)cc32)cc1 [Compound 70, 8-(1-(Azetidin-3-yl)-1H-pyrazol-4-yl)-1-(4-methoxybenzyl)-4-(5-methyloxazol-2-yl)-1,3-dihydro-2H-benzo[b]azepin-2-one]	0.001 to 1 µM	0.001 to 1 µM	0.001 to 1 µM	0.001 to 1 µM
CCOC(=O)Cn1cc(-c2ccc3c(c2)N(Cc2ccc(OC)cc2)C(=O)CC(c2ncc(C)o2)=C3)cn1 [Compound 71, Ethyl 2-(4-(1-(4-methoxybenzyl)-4-(5-methyloxazol-2-yl)-2-oxo-2,3-dihydro-1H-benzo[b]azepin-8-yl)-1H-pyrazol-1-yl)acetate]	0.001 to 1 µM	0.001 to 1 µM	0.001 to 1 µM	0.001 to 1 µM
COc1ccc(CN2C(=O)CC(c3ncc(C)o3)=Cc3ccc(-c4cnn(C(C)C(N)=O)c4)cc32)cc1 (centres unmarked) [Compound 72]	0.001 to 1 µM	0.001 to 1 µM	0.001 to 1 µM	0.001 to 1 µM
COc1ccc(CN2C(=O)CC(c3ncc(C)o3)=Cc3ccc(-c4cnn(CC(=O)N(C)C)c4)cc32)cc1 [Compound 73, 2-(4-(1-(4-Methoxybenzyl)-4-(5-methyloxazol-2-yl)-2-oxo-2,3-dihydro-1H-benzo[b]azepin-8-yl)-1H-pyrazol-1-yl)-N,N-dimethylacetamide]	0.001 to 1 µM	0.001 to 1 µM	0.001 to 1 µM	0.001 to 1 µM
CCOC(=O)C(C)n1cc(-c2ccc3c(c2)N(Cc2ccc(OC)cc2)C(=O)CC(c2ncc(C)o2)=C3)cn1 (centres unmarked) [Compound 74, Ethyl 2-(4-(1-(4-methoxybenzyl)-4-(5-methyloxazol-2-yl)-2-oxo-2,3-dihydro-1H-benzo[b]azepin-8-yl)-1H-pyrazol-1-yl)propanoate]	0.001 to 1 µM	0.001 to 1 µM	0.001 to 1 µM	0.001 to 1 µM
COc1ccc(CN2C(=O)CC(c3ncc(C)o3)=Cc3ccc(-c4cnn(C(C)C(=O)O)c4)cc32)cc1 (centres unmarked) [Compound 75, 2-(4-(1-(4-Methoxybenzyl)-4-(5-methyloxazol-2-yl)-2-oxo-2,3-dihydro-1H-benzo[b]azepin-8-yl)-1H-pyrazol-1-yl)propanoic acid]	1 to 10 µM	1 to 10 µM	1 to 10 µM	1 to 10 µM
COc1ccc(CN2C(=O)CC(c3ncc(C)o3)=Cc3ccc(-c4cnn(C(C)(C)C(N)=O)c4)cc32)cc1 [Compound 76, 2-(4-(1-(4-Methoxybenzyl)-4-(5-methyloxazol-2-yl)-2-oxo-2,3-dihydro-1H-benzo[b]azepin-8-yl)-1H-pyrazol-1-yl)-2-methylpropanamide]	0.001 to 1 µM	0.001 to 1 µM	0.001 to 1 µM	0.001 to 1 µM
[2H]C([2H])([2H])OCCCn1cc(-c2ccc3c(c2)N(Cc2ccc(OC)cc2)C(=O)CC(c2ncc(C)o2)=C3)cn1 [Compound 77, 8-(1-(3-(Methoxy-d3)propyl)-1H-pyrazol-4-yl)-1-(4-methoxybenzyl)-4-(5-methyloxazol-2-yl)-1,3-dihydro-2H-benzo[b]azepin-2-one]	0.001 to 1 µM	0.001 to 1 µM	0.001 to 1 µM	0.001 to 1 µM
COCCOCCn1cc(-c2ccc3c(c2)N(Cc2ccc(OC)cc2)C(=O)CC(c2ncc(C)o2)=C3)cn1 [Compound 78, 1-(4-methoxybenzyl)-8-(1-(2-(2-methoxyethoxy)ethyl)-1H-pyrazol-4-yl)-4-(5-methyloxazol-2-yl)-1,3-dihydro-2H-benzo[b]azepin-2-one]	0.001 to 1 µM	0.001 to 1 µM	0.001 to 1 µM	0.001 to 1 µM
COCCCCn1cc(-c2ccc3c(c2)N(Cc2ccc(OC)cc2)C(=O)CC(c2ncc(C)o2)=C3)cn1 [Compound 79, 1-(4-methoxybenzyl)-8-(1-(4-methoxybutyl)-1H-pyrazol-4-yl)-4-(5-methyloxazol-2-yl)-1,3-dihydro-2H-benzo[b]azepin-2-one]	0.001 to 1 µM	0.001 to 1 µM	0.001 to 1 µM	0.001 to 1 µM
CCOCCn1cc(-c2ccc3c(c2)N(Cc2ccc(OC)cc2)C(=O)CC(c2ncc(C)o2)=C3)cn1 [Compound 80, 8-(1-(2-ethoxyethyl)-1H-pyrazol-4-yl)-1-(4-methoxybenzyl)-4-(5-methyloxazol-2-yl)-1,3-dihydro-2H-benzo[b]azepin-2-one]	0.001 to 1 µM	0.001 to 1 µM	0.001 to 1 µM	0.001 to 1 µM
COc1ccc(CN2C(=O)CC(c3ncc(C)o3)=Cc3ccc(-c4cnn(C(C)=O)c4)cc32)cc1 [Compound 81, 8-(1-Acetyl-1H-pyrazol-4-yl)-1-(4-methoxybenzyl)-4-(5-methyloxazol-2-yl)-1,3-dihydro-2H-benzo[b]azepin-2-one]	0.001 to 1 µM	0.001 to 1 µM	0.001 to 1 µM	0.001 to 1 µM
COc1ccc(CN2C(=O)CC(c3ncc(C)o3)=Cc3ccc(-c4cnn(C(C)C(C)O)c4)cc32)cc1 (centres unmarked) [Compound 83, 8-(1-(3-Hydroxybutan-2-yl)-1H-pyrazol-4-yl)-1-(4-methoxybenzyl)-4-(5-methyloxazol-2-yl)-1,3-dihydro-2H-benzo[b]azepin-2-one]	0.001 to 1 µM	0.001 to 1 µM	0.001 to 1 µM	0.001 to 1 µM
CCS(=O)(=O)N1CC(CC#N)(n2cc(-c3ccc4c(c3)N(Cc3ccc(OC)cc3)C(=O)CC(c3ncc(C)o3)=C4)cn2)C1 [Compound 84, 2-(1-(Ethylsulfonyl)-3-(4-(1-(4-methoxybenzyl)-4-(5-methyloxazol-2-yl)-2-oxo-2,3-dihydro-1H-benzo[b]azepin-8-yl)-1H-pyrazol-1-yl)azetidin-3-yl)acetonitrile]	0.001 to 1 µM	0.001 to 1 µM	0.001 to 1 µM	0.001 to 1 µM
COc1ccc(CN2C(=O)CC(c3ncc(C)o3)=Cc3ccc(-c4cnn(C5(CC#N)CNC5)c4)cc32)cc1 [Compound 85, 2-(3-(4-(1-(4-Methoxybenzyl)-4-(5-methyloxazol-2-yl)-2-oxo-2,3-dihydro-1H-benzo[b]azepin-8-yl)-1H-pyrazol-1-yl)azetidin-3-yl)acetonitrile]	0.001 to 1 µM	0.001 to 1 µM	0.001 to 1 µM	0.001 to 1 µM
COc1ccc(CN2C(=O)CC(c3ncc(C)o3)=Cc3ccc(-c4cnn(C(C)(C)C#N)c4)cc32)cc1 [Compound 86, 2-(4-(1-(4-Methoxybenzyl)-4-(5-methyloxazol-2-yl)-2-oxo-2,3-dihydro-1H-benzo[b]azepin-8-yl)-1H-pyrazol-1-yl)-2-methylpropanenitrile]	0.001 to 1 µM	0.001 to 1 µM	0.001 to 1 µM	0.001 to 1 µM
COc1ccc(CN2C(=O)CC(c3ncc(C)o3)=Cc3ccc(-c4cnn(C5(CC#N)CN(S(C)(=O)=O)C5)c4)cc32)cc1 [Compound 87, 2-(3-(4-(1-(4-Methoxybenzyl)-4-(5-methyloxazol-2-yl)-2-oxo-2,3-dihydro-1H-benzo[b]azepin-8-yl)-1H-pyrazol-1-yl)-1-(methylsulfonyl)azetidin-3-yl)acetonitrile]	0.001 to 1 µM	0.001 to 1 µM	0.001 to 1 µM	0.001 to 1 µM
COc1ccc(CN2C(=O)CC(c3ncc(C)o3)=Cc3ccc(-c4cnn(C5(CC#N)COC5)c4)cc32)cc1 [Compound 88, 2-(3-(4-(1-(4-Methoxybenzyl)-4-(5-methyloxazol-2-yl)-2-oxo-2,3-dihydro-1H-benzo[b]azepin-8-yl)-1H-pyrazol-1-yl)oxetan-3-yl)acetonitrile]	0.001 to 1 µM	0.001 to 1 µM	0.001 to 1 µM	0.001 to 1 µM
COc1ccc(CN2C(=O)CC(c3ncc(C)o3)=Cc3ccc(-c4cnn(C5(CC#N)CN(S(=O)(=O)C6CC6)C5)c4)cc32)cc1 [Compound 89, 2-(1-(Cyclopropylsulfonyl)-3-(4-(1-(4-methoxybenzyl)-4-(5-methyloxazol-2-yl)-2-oxo-2,3-dihydro-1H-benzo[b]azepin-8-yl)-1H-pyrazol-1-yl)azetidin-3-yl)acetonitrile]	0.001 to 1 µM	0.001 to 1 µM	0.001 to 1 µM	0.001 to 1 µM
COc1ccc(CN2C(=O)CC(c3ncc(C)o3)=Cc3ccc(-c4cnn(C5(CC#N)CN(C(=O)C6CC6)C5)c4)cc32)cc1 [Compound 90, 2-(1-(Cyclopropanecarbonyl)-3-(4-(1-(4-methoxybenzyl)-4-(5-methyloxazol-2-yl)-2-oxo-2,3-dihydro-1H-benzo[b]azepin-8-yl)-1H-pyrazol-1-yl)azetidin-3-yl)acetonitrile]	0.001 to 1 µM	0.001 to 1 µM	0.001 to 1 µM	0.001 to 1 µM
